Patent publication US20240141375A1, “LENTIVIRUS FOR GENERATING CELLS EXPRESSING ANTI-CD19 CHIMERIC ANTIGEN RECEPTOR” (Umoja Biopharma, Inc., priority 2021, published 2024)

Legend:
unstimulated human PBMCs = test: T cell activation (CD25) in PBMCs after vector addition, flow cytometry; type: cell-based; details: 4 days after transduction; VT103 mCherry vectors 5 ul or 25 ul; Blinatumomab 1 ng/ml
Procedure: PBMCs were thawed, resuspended into 10 ml RPMI complete media, and the PBMCs were diluted to 1e6 cells/ml in complete RPMI media. IL-2 was added to a final concentration of 50U/ml. PBMCs were separated into 3× groups of 15 ml each for various stimulations: • Group #1—Blinatumomab added to a final concentration of 1 ng/ml • Group #2-15e6 αCD3/αCD28 Dynabeads added • Group #3—IL-2 only
For each group, 5 ml of stimulation solution was added to 3× wells of Non-TC treated 6 well plate and incubated at 37° C. for 48 hours. Beads were removed from applicable wells, cells were counted and pelleted. Cells were then resuspended in fresh complete RPMI media at 1e6 cells/ml with IL-2 at a final concentration of 50U/ml. 1 ml (1e6 cells) was added to the wells of a Non TC-treated 12 well plate. […]
After 4 days, cells were resuspended with 200 ul into wells in a 96 well V-bottom plate. […] Cells were resuspended in 50 ul of surface antibody cocktail (Anti-CD3-PerCP, Anti-CD19-FITC, Anti-CD56-APC, and Anti-CD25-BV421), incubated for 20 min at 4° C., washed in 200 ul FACS buffer, and resuspended in 100 ul FACS buffer and analyzed by flow cytometry. […]
(§1) Each group was incubated at 37° C. overnight. Beads were removed from applicable wells, cells were counted and pelleted. […]
as §1

Bead-activated PBMCs = test: Payload gene order: 2A detection, rapamycin enrichment and expansion of CAR-T cells; type: cell-based; details: by day 22; 10 nM rapamycin
Procedure: The aim of this study was to determine the effect of order on the detectability and function of a lentiviral payload comprised of the following functional elements: Frb-RACR, and αCD19-CAR. The Frb-RACR element provides a selective advantage to cells when rapamycin is added to the culture. The αCD19-CAR element provides targeting of T cells to CD19+ target cells. The two elements together create CAR-T cells that enrich with rapamycin and are cytotoxic to CD19+ target cells. Two payload designs evaluated differ only in the order in which elements are expressed in the polycistronic transcript. This study tested functional aspects of the payloads in both orientations to see if differences in expression were affecting 1) payload detection by flow cytometry (2A antibody), 2) CAR-T cell rapamycin response, and 3) CAR-T cell CD19+ cell cytotoxicity.
Two payload designs evaluated: • 1. MND promoter—FRB-P2A-RACRβ-P2A-RACRγ-P2A-CAR (SEQ ID NO: 81) • 2. MND promoter—CAR-P2A-FRB-P2A-RACRβ-P2A-RACRγ (SEQ ID NO: 61)
Expansion of CAR-T cells was measured using cell counts, culture volume, and flow cytometry population frequencies to estimate total CAR-T cells. Gating requirements were different for d15 and 22; however, in each case, un-transduced cells were used as a biological negative control. […]

Nalm-6 GFP FFLUC cells = test: Nalm-6 systemic tumor model in PBMC-humanized mice; set-up: species or system MHC I/II KO NSG female mice; details: mouse, in vivo
Procedure: The aim of this study is to evaluate the efficacy of UB-VV100 and the effects of rapamycin dosing after UB-VV100 administration in a Nalm-6 systemic tumor model in PBMC-humanized mice. The UB-VV100 Viral particles comprised SEQ ID NOs: 121, 128, 131, and 132.
Lentivirus was prepared using adherent production and tiered on 293T cells by flow cytometry. Nalm-6 GFP FFLUC cells expressing luciferase and GFP were obtained from the Jensen lab, SCRI, cultured by Umoja Biopharma, and delivered in PBS for injection.
24 MHC I/II KO NSG female mice were used in the study. On study day −5 (D-5) mice were implanted with 0.5 million Nalm-6 cells via retroorbital injection.
At study day −1 mice where humanized with 10 million PBMC via IP injection. The same day all mice were imaged with an IVIS imager 15 minutes after d-Luciferin injection (15 mg/kg) to detect Nalm-6 disease burden. All mice from each tumor group were randomized according to their tumor bioluminescence (Total Flux) levels into 4 cohorts according to the Table 8 below.
At study day 0 mice from groups 3 and 4 were treated IP with 20 million viral particles of UB-VV100 in 500 ul of PBS. […]
Percentage of body weight loss was monitored during the study (FIG. 34B). […] Bone marrow, spleen, peripheral blood and tumor were collected, processed into a single cell suspension, and analyzed by flow cytometry.

## Blinatumomab: Bispecific T-cell engager with anti-CD3 moiety, used as PBMC stimulus
Unstimulated human PBMCs
  CD25 expression on T cells (activation): potently activated the T cells

## CO[C@H]1C[C@@H]2CC[C@@H](C)[C@@](O)(O2)C(=O)C(=O)N2CCCC[C@H]2C(=O)O[C@H]([C@H](C)C[C@@H]2CC[C@@H](O)[C@H](OC)C2)CC(=O)[C@H](C)/C=C(\C)[C@@H](O)[C@@H](OC)C(=O)[C@H](C)C[C@H](C)/C=C/C=C/C=C/1C [rapamycin]
Bead-activated PBMCs
  expansion of αCD19-CAR-T cells over non-rapamycin treated cells: 4.3 fold
Nalm-6 GFP FFLUC cells
  survival: ≤ 20 study day
